Measured values published in patent US20060069132A1, “Azolecarboxamide herbicides” (priority 2004, published 2006).

Legend:
[1] = test system: spotted spurge; assay: Test E pre-/postemergence herbicide test; format: in vivo, Euphorbia maculata
Text: Seeds of plant species selected from bipinnate beggarticks (Bidens bipinnata L.), hairy beggarticks (Bidens radiata Thuill.), bermudagrass (Cynodon dactylon (L.) Pers.), Surinam grass (Urochloa decumbens (Staph) R. D. Webster, previously named Brachiaria decumbens Stapf), large crabgrass (Digitaria sanguinalis (L.) Scop.), green foxtail (Setaria viridis (L.) P. Beauv.), goosegrass (Eleusine indica (L.) Gaertn.), johnsongrass (Sorghum halepense (L.) Pers.), kochia (Kochia scoparia (L.) Schrad.), pitted morningglory (Ipomoea lacunosa L.), purple nutsedge (Cyperus rotundus L.), common ragweed (Ambrosia elatior L.), mustard (Brassica nigra (L.) W. D. J. Koch), guineagrass (Panicum maximum Jacq.), dallisgrass (Paspalum dilatatum Poir.), barnyardgrass (Echinochloa crus-galli (L). P. Beauv.), southern sandbur (Cenchrus echinatus L.), common sowthistle (Sonchus oleraceous L.), prickly sida (Sida spinosa L.), Italian ryegrass (Lolium multiflorum Lam.), common purslane (Portulaca oleracea L.), broadleaf signalgrass (Brachiaria platyphylla (Griseb.) Nash), common groundsel (Senecio vulgaris L.), common chickweed (Stellaria media (L.) Vill/Cyr.), tropical spiderwort (Commelina benghalensis L.), annual bluegrass (Poa annua L.), downy bromegrass (Bromus tectorum L.), itchgrass (Rottboellia cochinchinensis (L.) L.f.), quackgrass (Elytrigia repens (L.) Nevski), Canada horseweed (Erigeron Canadensis L.), field bindweed (Convolvulus arvensis L.), spotted spurge (Euphorbia maculata L.), common mallow (Malva sylvestris (=s silvestris) L.), and Russian thistle (Salsola kali L. ssp. Ruthenica (Iljin) Soo) were planted and treated preemergence with test chemicals formulated in a non-phytotoxic solvent mixture which included a surfactant.
At the same time, plants selected from these weed species were treated with postemergence applications of some of the test chemicals formulated in the same manner. […] Treated plants and controls were maintained in a greenhouse for 12 to 14 days, after which time all species were compared to controls and visually evaluated. […]

[2] = test system: wild oat; assay: Test F pre-/postemergence herbicide test; format: in vivo, Avena fatua
Text: Seeds of plant species selected from annual blugrass (Poa annua L.), blackgrass (Alopecurus myosuroides Huds.), catchweed bedstraw (Gallium aparine L.), common chickweed (Stellaria media (L.) Vill./Cyr.), downy bromegrass (Bromus tectorum L.), green foxtail (Setaria viridis (L.) Beauv.), Italian ryegrass (Lolium multiflorum Lam.), kochia (Kochia scoparia (L.). Schrad.), lambsquarters (Chenopodium album L.), littleseed canarygrass (Phalaris minor Retz.), pigweed (Amaranthus retroflexus L.), Russian thistle (Salsola kali L. ssp. Ruthenica (Iljin) Soo), wild buckwheat (Polygonum convolvulus L.), wild mustard (Sinapis arvensis L.), wild oat (Avena fatua L.), windgrass (Apera spica-venti (L.) Beauv.), winter barley (Hordeum vulgare L.), and wheat (Triticum aestivum L.) were planted and treated preemergence with test chemicals formulated in a non-phytotoxic solvent mixture which included a surfactant.
At the same time, plants selected from these crop and weed species were treated with postemergence applications of some of the test chemicals formulated in the same manner. Plants ranged in height from 2 to 18 cm (1- to 4-leaf stage) for postemergence treatments. Treated plants and controls were maintained in a greenhouse for 12 to 14 days, after which time all species were compared to controls and visually evaluated. Plant response ratings, summarized in Table F, are based on a scale of 0 to 100 where 0 is no effect and 100 is complete control. A dash (-) response means no test result.

[3] = test system: lambsquarters (CHEAL); assay: Test J Compounds 2 and 6 alone and in combination with other herbicides, foliage spray; format: in vivo, Chenopodium album; design: key: % herbicidal effect (observed); conditions: applied alone
Text: Colby's Equation was used to calculate the expected additive herbicidal effect of the mixtures of Compound 6 with Harmony® Extra (i.e. a 2:1 mixture by weight of thifensulfuron-methyl and tribenuron-methyl). […]
Seeds of test plants consisting of barnyardgrass (ECHCG; Echinochloa crus-galli (L.) Beauv.), blackgrass (ALOMY; Alopecurus myosuroides Huds.), Surinam grass (BRADC; Urochloa decumbens (Staph) R. D. Webster, previously named Brachiaria decumbens Stapf), cocklebur (XANST, Xanthium strumarium L.), corn (ZEAMD, Zea mays L. cv. ‘Pioneer 33G26’), large crabgrass (DIGSA, Digitaria sanguinalis (L.) Scop.), giant foxtail (SETFA, Setaria faberi Herrm.), lambsquarters (CHEAL, Chenopodium album L.), morningglory (IPOCO, Ipomoea coccinea L.), pigweed (AMARE, Amaranthus retroflexus L.), velvetleaf (ABUTH, Abutilon theophrasti Medik.) wheat (TRZAS, Triticum aestivum L. cv. ‘Recital’) and wild oat (AVEFA, Avena fatua L.) were planted in Redi-Earth® planting medium (Scotts Company, 14111 Scottslawn Road, Marysville, Ohio 43041) comprising spaghnum peat moss and vermiculite. […] Also listed in Table J are the expected effects for the mixtures calculated using Colby's Equation.

CCNC(=O)c1ccnc(NC(=O)c2cc(C(C)(C)C)nn2CC)c1 [Compound 152]
Plant response rating, Spurge, Spotted ([1]; Postemergence, 500 g ai/ha, scale 0 to 100): 95 | Plant response rating, Spurge, Spotted ([1]; Preemergence, 125 g ai/ha, scale 0 to 100): 100 | Plant response rating, Spurge, Spotted ([1]; Preemergence, 500 g ai/ha, scale 0 (no effect) to 100 (complete control)): 100

CCn1nc(C(C)(C)C)cc1C(=O)Nc1cc(C(=O)OC(C)C)c(F)cc1F [Compound 248]
Plant response rating (0-100), Oat, Wild ([2]; Postemergence, 31 g ai/ha): 45 | Plant response rating (0-100), Oat, Wild ([2]; Postemergence, 62 g ai/ha): 45 | Plant response rating (0-100), Oat, Wild ([2]; Postemergence, 125 g ai/ha): 60 | Plant response rating (0-100), Oat, Wild ([2]; Postemergence, 250 g ai/ha): 65 | Plant response rating (0-100), Oat, Wild ([2]; Preemergence, 31 g ai/ha): 40 | Plant response rating (0-100), Oat, Wild ([2]; Preemergence, 62 g ai/ha): 45 | Plant response rating (0-100), Oat, Wild ([2]; Preemergence, 125 g ai/ha): 50 | Plant response rating (0-100), Oat, Wild ([2]; Preemergence, 250 g ai/ha): 65

CCn1nc(C(C)(C)C)cc1C(=O)Nc1cc(C(=O)N(C)C)ccc1F [Compound 6, N-[5-[(dimethylamino)carbonyl]-2-fluorophenyl]-3-(1,1-dimethylethyl)-1-ethyl-1H-pyrazole-5-carboxamide]
CHEAL Obsd. ([3]; 62 g a.i./ha): 43 | CHEAL Obsd. ([3]; 125 g a.i./ha): 68
